Data as given in paper PMC10749220, “Development of a Rapid in vivo Assay to Evaluate the Efficacy of IRE1-specific Inhibitors of the Unfolded Protein Response Using Medaka Fish” (Cell Structure and Function, 2019).

Target: T1, IRE1α (Homo sapiens, UniProt O75460)
T1 construct: gene ERN1; His-tagged cytoplasmic region of IRE1α (IRE1-C), expressed in SF9 insect cells
Test: in vitro XBP1 mRNA cleavage assay with purified IRE1-C, urea-PAGE, SYBR Gold stain
Format: biochemical

T1 sequence (O75460 465-977 limits assumed): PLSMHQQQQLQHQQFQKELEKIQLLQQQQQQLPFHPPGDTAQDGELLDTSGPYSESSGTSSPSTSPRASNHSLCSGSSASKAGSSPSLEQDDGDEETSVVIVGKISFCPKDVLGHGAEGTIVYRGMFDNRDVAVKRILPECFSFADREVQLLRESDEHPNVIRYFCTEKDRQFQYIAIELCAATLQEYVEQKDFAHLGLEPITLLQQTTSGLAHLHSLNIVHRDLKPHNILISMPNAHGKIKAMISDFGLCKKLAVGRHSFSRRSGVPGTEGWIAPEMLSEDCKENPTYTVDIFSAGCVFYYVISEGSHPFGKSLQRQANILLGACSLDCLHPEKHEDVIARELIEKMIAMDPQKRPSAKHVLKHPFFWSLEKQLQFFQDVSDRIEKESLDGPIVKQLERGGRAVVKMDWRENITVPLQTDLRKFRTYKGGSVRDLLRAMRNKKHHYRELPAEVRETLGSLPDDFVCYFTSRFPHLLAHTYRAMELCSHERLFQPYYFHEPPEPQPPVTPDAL

IC50	SMILES
30.8 µM	Oc1ccc(/C=C/c2ccc(/C=C/c3ccc(O)cc3)c(Br)c2)cc1 [K114]
0.0741 µM	Cc1cc(=O)oc2c(C=O)c(O)ccc12 [4μ8C]
